Results taken from PubChem BioAssay AID1963853 (Molecular Pharmacology Branch, DTP, NCI, 2024).

Test system: 266295-075-R-J1-PDC spheroid viability
Assay: Anticancer human tumor 266295-075-R-J1-PDC patient-derived head and neck squamous carcinoma cell line growth inhibition [POLQ]
Settings: spheroids with HUVEC and MSC; for IC50: curve of first compound; for viability, T/C: stronger effect = lower value
How it was run: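 Patient-derived tumour cells were co-cultured with HUVEC and mesenchymal stem cells as multicellular spheroids at 37 °C. They were treated with POLQ inhibitors (novobiocin, ART-558, RP6685) alone or combined with other agents. Top concentrations were at or near clinical Cmax (otherwise 10 microM; SN-38 at 1 microM), decreasing in half-log steps.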

[1] = second compound 0.0316 µM, first compound 0.000316 µM
[2] = second compound 0.0316 µM, first compound 0.001 µM
[3] = second compound 0.0316 µM, first compound 0.00316 µM
[4] = second compound 0.0316 µM, first compound 0.01 µM
[5] = second compound 0.0316 µM, first compound 0.0316 µM
[6] = second compound 0.0316 µM, first compound 0.1 µM
[7] = second compound 0.1 µM, first compound 0.000316 µM
[8] = second compound 0.1 µM, first compound 0.001 µM
[9] = second compound 0.1 µM, first compound 0.00316 µM
[10] = second compound 0.1 µM, first compound 0.01 µM
[11] = second compound 0.1 µM, first compound 0.0316 µM
[12] = second compound 0.1 µM, first compound 0.1 µM
[13] = second compound 0.316 µM, first compound 0.000316 µM
[14] = second compound 0.316 µM, first compound 0.001 µM
[15] = second compound 0.316 µM, first compound 0.00316 µM
[16] = second compound 0.316 µM, first compound 0.01 µM
[17] = second compound 0.316 µM, first compound 0.0316 µM
[18] = second compound 0.316 µM, first compound 0.1 µM
[19] = second compound 1 µM, first compound 0.000316 µM
[20] = second compound 1 µM, first compound 0.001 µM
[21] = second compound 1 µM, first compound 0.00316 µM
[22] = second compound 1 µM, first compound 0.01 µM
[23] = second compound 1 µM, first compound 0.0316 µM
[24] = second compound 1 µM, first compound 0.1 µM
[25] = second compound 3.16 µM, first compound 0.000316 µM
[26] = second compound 3.16 µM, first compound 0.001 µM
[27] = second compound 3.16 µM, first compound 0.00316 µM
[28] = second compound 3.16 µM, first compound 0.01 µM
[29] = second compound 3.16 µM, first compound 0.0316 µM
[30] = second compound 3.16 µM, first compound 0.1 µM
[31] = second compound 10 µM, first compound 0.000316 µM
[32] = second compound 10 µM, first compound 0.001 µM
[33] = second compound 10 µM, first compound 0.00316 µM
[34] = second compound 10 µM, first compound 0.01 µM
[35] = second compound 10 µM, first compound 0.0316 µM
[36] = second compound 10 µM, first compound 0.1 µM
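Further: spheroids exposed to compounds for seven days before readout.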

## CC[C@@]1(O)C(=O)OCc2c1cc1n(c2=O)Cc2cc3c(CN(C)C)c(O)ccc3nc2-1 + COC1C(OC(N)=O)C(O)C(Oc2ccc3c(O)c(NC(=O)c4ccc(O)c(CC=C(C)C)c4)c(=O)oc3c2C)OC1(C)C
Second compound 0.0316 µM
  IC50: > 0.1 µM
Second compound 0.1 µM
  IC50: > 0.1 µM
Second compound 0.316 µM
  IC50: > 0.1 µM
Second compound 1 µM
  IC50: > 0.1 µM
Second compound 3.16 µM
  IC50: > 0.1 µM
Second compound 10 µM
  IC50: > 0.1 µM
[1]
  viability, T/C: 84.1%
[2]
  viability, T/C: 99.8%
[3]
  viability, T/C: 84.9%
[4]
  viability, T/C: 96.9%
[5]
  viability, T/C: 89.4%
[6]
  viability, T/C: 104%
[7]
  viability, T/C: 87.2%
[8]
  viability, T/C: 87.7%
[9]
  viability, T/C: 90.5%
[10]
  viability, T/C: 100%
[11]
  viability, T/C: 103%
[12]
  viability, T/C: 88%
[13]
  viability, T/C: 102%
[14]
  viability, T/C: 85.4%
[15]
  viability, T/C: 75.8%
[16]
  viability, T/C: 98.2%
[17]
  viability, T/C: 89.4%
[18]
  viability, T/C: 89.1%
[19]
  viability, T/C: 99%
[20]
  viability, T/C: 90.8%
[21]
  viability, T/C: 109%
[22]
  viability, T/C: 89.2%
[23]
  viability, T/C: 114%
[24]
  viability, T/C: 100%
[25]
  viability, T/C: 114%
[26]
  viability, T/C: 97%
[27]
  viability, T/C: 85.3%
[28]
  viability, T/C: 91.2%
[29]
  viability, T/C: 88.3%
[30]
  viability, T/C: 96.9%
[31]
  viability, T/C: 95.8%
[32]
  viability, T/C: 98.5%
[33]
  viability, T/C: 97.8%
[34]
  viability, T/C: 107%
[35]
  viability, T/C: 95.4%
[36]
  viability, T/C: 94.5%

## CC[C@@]1(O)C(=O)OCc2c1cc1n(c2=O)Cc2cc3c(CN(C)C)c(O)ccc3nc2-1 + Nc1ccc(C#CCN(C(=O)Cc2ncc(C(F)(F)F)cc2C(F)(F)F)c2ccc(F)cc2)nn1
Second compound 0.0316 µM
  IC50: > 0.1 µM
Second compound 0.1 µM
  IC50: > 0.1 µM
Second compound 0.316 µM
  IC50: > 0.1 µM
Second compound 1 µM
  IC50: > 0.1 µM
Second compound 3.16 µM
  IC50: > 0.1 µM
Second compound 10 µM
  IC50: > 0.1 µM
[1]
  viability, T/C: 98.9%
[2]
  viability, T/C: 105%
[3]
  viability, T/C: 105%
[4]
  viability, T/C: 95.1%
[5]
  viability, T/C: 84%
[6]
  viability, T/C: 91.8%
[7]
  viability, T/C: 105%
[8]
  viability, T/C: 110%
[9]
  viability, T/C: 97.5%
[10]
  viability, T/C: 92.1%
[11]
  viability, T/C: 116%
[12]
  viability, T/C: 114%
[13]
  viability, T/C: 101%
[14]
  viability, T/C: 93.8%
[15]
  viability, T/C: 103%
[16]
  viability, T/C: 107%
[17]
  viability, T/C: 116%
[18]
  viability, T/C: 69.2%
[19]
  viability, T/C: 91.2%
[20]
  viability, T/C: 97.2%
[21]
  viability, T/C: 75.7%
[22]
  viability, T/C: 102%
[23]
  viability, T/C: 98.7%
[24]
  viability, T/C: 74.3%
[25]
  viability, T/C: 97.3%
[26]
  viability, T/C: 101%
[27]
  viability, T/C: 82.5%
[28]
  viability, T/C: 83.2%
[29]
  viability, T/C: 99.5%
[30]
  viability, T/C: 88.6%
[31]
  viability, T/C: 97.2%
[32]
  viability, T/C: 92.2%
[33]
  viability, T/C: 119%
[34]
  viability, T/C: 85.7%
[35]
  viability, T/C: 94.4%
[36]
  viability, T/C: 87.8%
